Assay results: patent US20040142882A1, “Use of glycyrrhizin and its derivatives as RANTES inducers” (priority 2002, published 2004)

Tests used:
[1] = tested on: peripheral mononuclear cells from AIDS patients; experiment: RANTES induction in peripheral mononuclear cells from AIDS patients; type: cell-based, human; details: 100 μg/ml, 24 hours, cells from 3 AIDS patients, FIG. 4
Protocol: Peripheral blood was collected from 3 AIDS patients (CD4 count: 215-418 cells/μl, viral load: 80,000-370,000 copies/ml) and peripheral mononuclear cells were isolated with Ficoll-Hypaque. 1×10^6 cells/ml of peripheral mononuclear cells were stimulated for 24 hours with 100 μg/ml of glycyrrhizin. The amount of RANTES present in the culture supernatant was measured with the Human RANTES/CCL5 Quantikine Immunoassay Kit (R&D Systems). Furthermore, the control in the drawing indicates the amount of RANTES in culture supernatant of peripheral mononuclear cells not treated with glycyrrhizin.

HIV [2] = details: 150 to 225 mg (6 to 9 tablets) per day, asymptomatic carriers (AC); cited from earlier work
[3] = tested on: mononuclear cells originated from mouse spleen; experiment: RANTES induction in mononuclear cells originated from mouse spleen; type: cell-based
Text: The above results were able to be confirmed not only in humans, but also in experiments using mononuclear cells originated from mouse spleen.

[4] = tested on: methicillin-resistant Staphylococcus aureus (MRSA); experiment: MRSA infection in SCIDbgMN mice inoculated with spleen mononuclear cells of IFN-γ knockout mice, survival; type: in vivo; details: 10 days
Protocol: Spleen mononuclear cells originated from IFN-γ knockout mice (5×10^6 cells/ml) were inoculated into SCIDbgMN mice (SCID-beige mice deficient in macrophage and neutrophil functions). A 20 mg/kg dose of glycyrrhizin was administered intraperitoneally immediately after inoculation. 2 hours later, the animals were infected through the tail vein with methicillin-resistant Staphylococcus aureus (MRSA) at a level of 5 LD50. Furthermore, a control group was infected with an equal amount of MRSA following administration of physiological saline.
Spleen mononuclear cells originated from IFN-γ knockout mice (5×10^6 cells/ml) were inoculated into SCIDbgMN mice. A 20 mg/kg dose of glycyrrhizin was administered intraperitoneally immediately after inoculation. 2 hours later, the animals were infected through the tail vein with methicillin-resistant Staphylococcus aureus (MRSA) at a level of 5 LD50. 10 μg/ml of anti-RANTES monoclonal antibody was administered subcutaneously 2 hours before, 12 hours after and 24 hours after administration of glycyrrhizin, while an equal amount of Ig was administered subcutaneously to a control group.

[5] = tested on: peripheral mononuclear cells; experiment: RANTES induction in peripheral mononuclear cells from healthy individuals (Quantikine immunoassay of culture supernatant); type: cell-based, human
Protocol: Peripheral blood was collected from healthy individuals and peripheral mononuclear cells were isolated with Ficoll-Hypaque. RPMI1640 medium containing 10% FCS and antibiotics (penicillin and streptomycin) was used for culturing. After stimulating 1×10^6 cells/ml of peripheral mononuclear cells with 100 μg/ml of sodium olean-3β-hydroxy-11-oxo-12-ene-30-ate, disodium olean-9(11),12-diene-3β,30-diol-3β,30-O-dihemiphthalate, disodium olean-11,13 (18)-diene-3β,30-diol-3β,30-O-dihemiphthalate, disodium olean-3β-hydroxy-11,13(18)-diene-30-ate-3β-O-hemiphthalate, disodium olean-3β-hydroxy-11-oxo-12-ene-30-ate-3β-O-hemiphthalate, or monoammonium glycyrrhizinate for 24 hours, the amount of RANTES in the culture supernatant was measured with a Human RANTES/CCL5 Quantikine Immunoassay Kit (R&D Systems). Furthermore, the control in the drawing indicates the amount of RANTES in culture supernatant when peripheral mononuclear cells were treated with medium only.
Peripheral blood was collected from healthy subjects and peripheral mononuclear cells were isolated with Ficoll-Hypaque. 1×10^6 cells/ml of peripheral mononuclear cells were stimulated with 100 μg/ml of monoammonium glycyrrhizinate (monoammonium glycyrrhizinate will hereinafter be referred to as glycyrrhizin). Taking the time at which glycyrrhizin was added to be 0 hours, the amount of RANTES present in the culture supernatant was measured with the Human RANTES/CCL5 Quantikine Immunoassay Kit (R&D Systems) 12, 24, 48 and 72 hours later. Furthermore, the control in the drawing indicates the amount of RANTES in culture supernatant of peripheral mononuclear cells not treated with glycyrrhizin.
Peripheral blood was collected from healthy subjects and peripheral mononuclear cells were isolated with Ficoll-Hypaque. 1×10^6 cells/ml of peripheral mononuclear cells were stimulated for 24 hours with 0.1-100 μg/ml of glycyrrhizin. The amount of RANTES present in the culture supernatant was measured with the Human RANTES/CCL5 Quantikine Immunoassay Kit (R&D Systems).

[6] = tested on: septicemia induced by cecal ligation and puncture (CLP); experiment: Septicemia model (cecal ligation and puncture) in IFN-γ knockout mice, survival; type: in vivo; details: 7 days
Protocol: Glycyrrhizin was administered intraperitoneally to IFN-γ knockout mice at 20 mg/kg, and septicemia was induced by cecal ligation and puncture (CLP) 2 hours later.
Glycyrrhizin was administered intraperitoneally to IFN-γ knockout mice at 20 mg/kg, and septicemia was induced by CLP 2 hours later. 10 μg/ml of anti-RANTES monoclonal antibody were administered subcutaneously 2 hours before, 12 hours after and 24 hours after administration of glycyrrhizin, while an equal amount of Ig was administered subcutaneously to a control group.

HIV [7] = details: reported in recent years; cited from earlier work
IL-12Rβ2 mRNA = experiment: Th1 cell induction: IL-12Rβ2 mRNA expression by RT-PCR in peripheral mononuclear cells; type: cell-based, human; details: 7 days, FIG. 5
Protocol: Peripheral blood was collected from healthy subjects and peripheral mononuclear cells were isolated with Ficoll-Hypaque. 1×10^6 cells/ml of peripheral mononuclear cells were cultured for 7 days in medium containing IL-2 (10 U/ml) and anti-IFN-γ monoclonal antibody (10 μg/ml) in the presence of 100 μg/ml of glycyrrhizin, or glycyrrhizin and anti-RANTES monoclonal antibody (10 μg/ml). After culturing, RNA was extracted from the cells, and the expression of IL-12Rβ2 mRNA, a marker for Th1 cells, was measured by RT-PCR. […] In other words, IFN-γ is not involved in the reaction used in this experiment. Furthermore, the control in the drawing indicates the degree of expression of IL-12Rβ2 mRNA in mononuclear cells when cultured without the addition of glycyrrhizin.

| Structure (SMILES) | RANTES induction [1] | survival without the onset of AIDS (HIV [2]) | RANTES induction confirmed in mouse cells [3] | mortality rate after MRSA infection with anti-RANTES monoclonal antibody ([4]; 20 mg/kg i.p. plus anti-RANTES monoclonal antibody subcutaneously, FIG. 9) | survival rate after MRSA infection ([4]; 20 mg/kg intraperitoneally 2 hours before MRSA 5 LD50 via tail vein, FIG. 8) | amount of RANTES in the culture supernatant ([5]; 100 μg/ml compound, 24 hours, 1×10^6 cells/ml, FIG. 1) | production of RANTES over time ([5]; 100 μg/ml, 12, 24, 48 and 72 hours, FIG. 2) | RANTES induction versus concentration ([5]; 0.1-100 μg/ml tested, 24 hours, dose dependent within 1-100 μg/ml, FIG. 3) | mortality rate after septicemic infection with anti-RANTES monoclonal antibody ([6]; 20 mg/kg i.p. plus anti-RANTES monoclonal antibody subcutaneously, FIG. 7) | survival rate after septicemic infection ([6]; 20 mg/kg intraperitoneally 2 hours before CLP, FIG. 6) | intracellular growth of HIV (HIV [7]) | expression of IL-12Rβ2 mRNA (Th1 marker) with anti-RANTES monoclonal antibody (IL-12Rβ2 mRNA; 100 μg/ml glycyrrhizin plus anti-RANTES monoclonal antibody 10 μg/ml) | expression of IL-12Rβ2 mRNA (Th1 marker) (IL-12Rβ2 mRNA; 100 μg/ml, with IL-2 and anti-IFN-γ monoclonal antibody) | amount of RANTES induced compared with monoammonium glycyrrhizinate ([5]; 100 μg/ml compound, 24 hours, FIG. 1) |
| --- | --- | --- | --- | --- | --- | --- | --- | --- | --- | --- | --- | --- | --- | --- |
| CC1(C)[C@@H](O[C@H]2O[C@H](C(=O)O)[C@@H](O)[C@H](O)[C@H]2O[C@@H]2O[C@H](C(=O)O)[C@@H](O)[C@H](O)[C@H]2O)CC[C@]2(C)[C@H]3C(=O)C=C4[C@@H]5C[C@@](C)(C(=O)O)CC[C@]5(C)CC[C@@]4(C)[C@]3(C)CC[C@@H]12.N [GR, monoammonium glycyrrhizinate] | RANTES was induced | ≥ 10 years | confirmed | increased to the same level as the control group | 75% | 3 ng/mL | increased with the passage of culturing time | dose dependent manner | increased to the same level as the control group | 80% | inhibits the intracellular growth of HIV | no longer demonstrated its expression | increase in the expression of IL-12Rβ2 mRNA |  |
| CC1(COC(=O)c2ccccc2C(=O)[O-])CCC2(C)CCC3(C)C(=C2C1)C=CC1C2(C)CCC(OC(=O)c4ccccc4C(=O)[O-])C(C)(C)C2CCC13C.[Na+].[Na+] (stereo not drawn) [MUN-014, disodium olean-11,13(18)-diene-3β,30-diol-3β,30-O-dihemiphthalate] |  |  |  |  |  |  |  |  |  |  |  |  |  | nearly equal amount |
